According to publication PMC12275099, “VX-445 (elexacaftor) inhibits chloride secretion across human bronchial epithelial cells by directly blocking KCa3.1 channels” (PNAS Nexus, 2025):

Legend:
[1] = molecular target: KCa2.3 (Homo sapiens, UniProt Q9UGI6); test: Excised inside-out patch-clamp on HEK cells expressing KCa2.3; format: biochemical; conditions: 10 µM; 1 µM free Ca2+; n = 4; VX-659 added subsequent to VX-445; read-out: inhibition of KCa2.3 currents
Description: As above, we performed excised patch-clamp recordings on HEK cells heterologously expressing KCa2.3 or KCa2.2, in order to assess the activity of C2 CFTR corrector compounds. […] In contrast, the subsequent addition of 10 µM VX-659 yielded an almost complete inhibition of KCa2.3 currents, averaging 91 ± 3% (n = 4).
HEK cells stably expressing KCa3.1 (IK1, SK4), KCa2.3 (SK3), and KCa2.2 (SK2) were generated and cultured as previously described by us ([37], [66–71]).
HEK cells expressing the channel of interest were plated onto poly-L-lysine-coated glass coverslips 1–2 days prior to patch-clamp analysis. Electrophysiological recordings in the excised, inside-out, and whole-cell patch-clamp configurations were performed as recently described ([14]). For excised patch-clamp recordings, the pipette solution contained (in mM): 140 K-gluconate, 5 KCl, 1 CaCl2, 1 MgCl2, and 10 HEPES. The pH was adjusted to 7.2 with KOH. The bath solution contained (in mM): 145 K-gluconate, 5 KCl, 1.3 MgCl2, 10 HEPES, and 1 EGTA. Sufficient CaCl2 was added to obtain the desired free Ca^2+ concentration at a pH of 7.2 (adjusted with KOH). When recording KCa3.1 channels, ATP (300 µM) was added to the bath to diminish channel rundown ([73]). All recordings were carried out at a voltage of −100 mV, referenced to the extracellular compartment, as is standard. The apparent Ki and Hill coefficient for each CFTR corrector on KCa3.1, KCa2.3, and KCa2.2 were determined during a continuous recording by step-wise addition of increasing concentrations of compound and fitting the resultant relative remaining current to a Hill equation (Prism v. 10.1.0). The zero current level was determined by the addition of a 0 Ca^2+ solution (zero-added Ca^2+ plus 1 mM EGTA) at the end of the experiment. […] Current–voltage relationships were determined by stepping from a holding potential of −80 mV to +80 mV in 20 mV increments for 400 ms. The middle 300 ms of each trace was selected to avoid any influence of capacitive transients, and average currents were calculated for each voltage via the I–V tool in Clampfit. […]

[2] = parameters: method as in earlier work; conditions: clinical trial data, converted, cited from earlier work
[3] = parameters: method as in PMID 36371965; conditions: patients with CF, converted; cited from earlier work

Chain of KCa2.3 (Q9UGI6 whole entry): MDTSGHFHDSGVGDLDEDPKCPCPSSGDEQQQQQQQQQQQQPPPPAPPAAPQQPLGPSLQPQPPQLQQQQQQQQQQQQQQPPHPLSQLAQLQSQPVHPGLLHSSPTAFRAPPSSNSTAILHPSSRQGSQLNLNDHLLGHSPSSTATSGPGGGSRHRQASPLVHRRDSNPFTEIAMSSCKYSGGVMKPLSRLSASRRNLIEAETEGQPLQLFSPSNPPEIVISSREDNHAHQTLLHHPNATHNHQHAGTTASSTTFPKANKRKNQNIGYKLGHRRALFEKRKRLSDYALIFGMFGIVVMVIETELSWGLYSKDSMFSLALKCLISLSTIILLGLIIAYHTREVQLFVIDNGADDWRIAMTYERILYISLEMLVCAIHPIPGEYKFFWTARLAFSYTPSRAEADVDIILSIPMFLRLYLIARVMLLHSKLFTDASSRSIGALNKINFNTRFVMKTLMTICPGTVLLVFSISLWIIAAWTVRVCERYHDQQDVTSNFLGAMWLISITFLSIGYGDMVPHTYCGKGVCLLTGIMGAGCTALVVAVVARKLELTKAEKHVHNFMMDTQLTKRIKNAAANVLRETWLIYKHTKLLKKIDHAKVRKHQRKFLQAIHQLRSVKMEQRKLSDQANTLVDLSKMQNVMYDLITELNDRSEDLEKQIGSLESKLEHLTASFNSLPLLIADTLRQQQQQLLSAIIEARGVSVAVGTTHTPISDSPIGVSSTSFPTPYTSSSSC

For `Cc1nn(C)cc1S(=O)(=O)NC(=O)c1ccc(-n2ccc(OCC(C)(C)C(F)(F)F)n2)nc1N1C[C@@H](C)CC1(C)C` [VX-445, elexacaftor], the inhibition at 10 µM [1] is listed as 15 ± 5%, the “minimal (Cmin) plasma concentration” value [2] is listed as 6 to 9 µM and the Cmax ([2]; read-out: maximal (Cmax) plasma concentration) is listed as about 15 µM. For the same molecule, the “mean concentration in nasal brushing cell lysates, upper end” value [3] was about 9 µM.
